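48-hour exposure; five concentrations; linearly interpolated endpoints. GI50 marks 50% less growth. TGI marks complete inhibition of growth.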
Legend:
Assay in all cases: NCI anticancer screen, dose series, 48 h
HOP-62 NSCLC = tested on: HOP-62 NSCLC
MCF7 breast = tested on: MCF7 breast
T-47D breast = tested on: T-47D breast
NCI-H522 lung = tested on: NCI-H522 lung
HCT-116 colon = tested on: HCT-116 colon
HCT-15 colon = tested on: HCT-15 colon
COLO 205 colon = tested on: COLO 205 colon
KM12 colon = tested on: KM12 colon
OVCAR-4 ovarian = tested on: OVCAR-4 ovarian
MDA-MB-231 breast = tested on: MDA-MB-231 breast
SK-MEL-5 melanoma = tested on: SK-MEL-5 melanoma
BT-549 breast = tested on: BT-549 breast
K-562 leukemia = tested on: K-562 leukemia
HS 578T breast = tested on: HS 578T breast
SF-295 CNS = tested on: SF-295 CNS
CAKI-1 renal = tested on: CAKI-1 renal
EKVX NSCLC = tested on: EKVX NSCLC
DU-145 prostate = tested on: DU-145 prostate
SK-MEL-2 melanoma = tested on: SK-MEL-2 melanoma
OVCAR-3 ovarian = tested on: OVCAR-3 ovarian
UACC-257 melanoma = tested on: UACC-257 melanoma
MDA-MB-435 = tested on: MDA-MB-435
SK-MEL-28 melanoma = tested on: SK-MEL-28 melanoma
ACHN renal = tested on: ACHN renal
UO-31 renal = tested on: UO-31 renal
LOX IMVI melanoma = tested on: LOX IMVI melanoma
MOLT-4 leukemia = tested on: MOLT-4 leukemia
HL-60(TB) leukemia = tested on: HL-60(TB) leukemia
SN12C renal = tested on: SN12C renal
NCI-H23 lung = tested on: NCI-H23 lung
SW-620 colon = tested on: SW-620 colon
OVCAR-5 ovarian = tested on: OVCAR-5 ovarian
RPMI-8226 leukemia = tested on: RPMI-8226 leukemia
SF-539 CNS = tested on: SF-539 CNS
TK-10 renal = tested on: TK-10 renal
HT29 colon = tested on: HT29 colon
UACC-62 melanoma = tested on: UACC-62 melanoma
A498 renal = tested on: A498 renal
SK-OV-3 ovarian = tested on: SK-OV-3 ovarian
OVCAR-8 ovarian = tested on: OVCAR-8 ovarian
NCI-H226 lung = tested on: NCI-H226 lung
U251 CNS = tested on: U251 CNS
SF-268 CNS = tested on: SF-268 CNS
A549 NSCLC = tested on: A549 NSCLC
SR leukemia = tested on: SR leukemia
HOP-92 NSCLC = tested on: HOP-92 NSCLC
M14 melanoma = tested on: M14 melanoma
NCI/ADR-RES ovarian = tested on: NCI/ADR-RES ovarian
NCI-H460 lung = tested on: NCI-H460 lung
SNB-19 CNS = tested on: SNB-19 CNS
MALME-3M melanoma = tested on: MALME-3M melanoma
HCC-2998 colon = tested on: HCC-2998 colon
IGROV1 ovarian = tested on: IGROV1 ovarian
PC-3 prostate = tested on: PC-3 prostate
SNB-75 CNS = tested on: SNB-75 CNS
RXF 393 renal = tested on: RXF 393 renal
786-0 renal = tested on: 786-0 renal
CCRF-CEM leukemia = tested on: CCRF-CEM leukemia

SMILES: O=C(Nc1ccccc1C(=O)N/N=C(\c1ccccc1)c1ccccn1)c1ccccc1
- GI50 (HOP-62 NSCLC): 396 nM
- TGI (HOP-62 NSCLC): > 100000 nM
- GI50 (MCF7 breast): 556 nM
- TGI (MCF7 breast): > 100000 nM
- GI50 (T-47D breast): 666 nM
- TGI (T-47D breast): > 100000 nM
- GI50 (NCI-H522 lung): 1270 nM
- TGI (NCI-H522 lung): > 100000 nM
- GI50 (HCT-116 colon): 405 nM
- TGI (HCT-116 colon): > 100000 nM
- GI50 (HCT-15 colon): 112 nM
- TGI (HCT-15 colon): > 100000 nM
- GI50 (COLO 205 colon): 427 nM
- TGI (COLO 205 colon): > 100000 nM
- GI50 (KM12 colon): 581 nM
- TGI (KM12 colon): > 100000 nM
- GI50 (OVCAR-4 ovarian): 330 nM
- TGI (OVCAR-4 ovarian): > 100000 nM
- GI50 (MDA-MB-231 breast): 478 nM
- TGI (MDA-MB-231 breast): > 100000 nM
- GI50 (SK-MEL-5 melanoma): 560 nM
- TGI (SK-MEL-5 melanoma): 2460 nM
- GI50 (BT-549 breast): 2180 nM
- TGI (BT-549 breast): > 100000 nM
- GI50 (K-562 leukemia): 1450 nM
- TGI (K-562 leukemia): > 100000 nM
- GI50 (HS 578T breast): > 100000 nM
- TGI (HS 578T breast): > 100000 nM
- GI50 (SF-295 CNS): 427 nM
- TGI (SF-295 CNS): > 67000 nM
- GI50 (CAKI-1 renal): 397 nM
- TGI (CAKI-1 renal): > 100000 nM
- GI50 (EKVX NSCLC): 339 nM
- TGI (EKVX NSCLC): > 100000 nM
- GI50 (DU-145 prostate): 999 nM
- TGI (DU-145 prostate): > 100000 nM
- GI50 (SK-MEL-2 melanoma): 4850 nM
- TGI (SK-MEL-2 melanoma): > 100000 nM
- GI50 (OVCAR-3 ovarian): 346 nM
- TGI (OVCAR-3 ovarian): > 100000 nM
- GI50 (UACC-257 melanoma): 2580 nM
- TGI (UACC-257 melanoma): > 100000 nM
- GI50 (MDA-MB-435): 1390 nM
- TGI (MDA-MB-435): > 100000 nM
- GI50 (SK-MEL-28 melanoma): 1230 nM
- TGI (SK-MEL-28 melanoma): > 100000 nM
- GI50 (ACHN renal): 418 nM
- TGI (ACHN renal): > 100000 nM
- GI50 (UO-31 renal): 428 nM
- TGI (UO-31 renal): > 25500 nM
- GI50 (LOX IMVI melanoma): 505 nM
- TGI (LOX IMVI melanoma): > 100000 nM
- GI50 (MOLT-4 leukemia): 460 nM
- TGI (MOLT-4 leukemia): > 100000 nM
- GI50 (HL-60(TB) leukemia): 606 nM
- TGI (HL-60(TB) leukemia): > 22000 nM
- GI50 (SN12C renal): 623 nM
- TGI (SN12C renal): > 100000 nM
- GI50 (NCI-H23 lung): 1870 nM
- TGI (NCI-H23 lung): > 100000 nM
- GI50 (SW-620 colon): 723 nM
- TGI (SW-620 colon): > 100000 nM
- GI50 (OVCAR-5 ovarian): 933 nM
- TGI (OVCAR-5 ovarian): > 100000 nM
- GI50 (RPMI-8226 leukemia): 823 nM
- TGI (RPMI-8226 leukemia): > 100000 nM
- GI50 (SF-539 CNS): 621 nM
- TGI (SF-539 CNS): > 100000 nM
- GI50 (TK-10 renal): 584 nM
- TGI (TK-10 renal): > 100000 nM
- GI50 (HT29 colon): 797 nM
- TGI (HT29 colon): > 100000 nM
- GI50 (UACC-62 melanoma): 496 nM
- GI50 (A498 renal): 2950 nM
- TGI (A498 renal): > 100000 nM
- GI50 (SK-OV-3 ovarian): 504 nM
- TGI (SK-OV-3 ovarian): > 100000 nM
- GI50 (OVCAR-8 ovarian): 583 nM
- TGI (OVCAR-8 ovarian): > 100000 nM
- GI50 (NCI-H226 lung): 828 nM
- TGI (NCI-H226 lung): > 100000 nM
- GI50 (U251 CNS): 657 nM
- TGI (U251 CNS): > 100000 nM
- GI50 (SF-268 CNS): 609 nM
- TGI (SF-268 CNS): > 100000 nM
- GI50 (A549 NSCLC): 987 nM
- TGI (A549 NSCLC): > 100000 nM
- GI50 (SR leukemia): 507 nM
- TGI (SR leukemia): > 100000 nM
- GI50 (HOP-92 NSCLC): 552 nM
- TGI (HOP-92 NSCLC): 47800 nM
- GI50 (M14 melanoma): 457 nM
- TGI (M14 melanoma): 4630 nM
- GI50 (NCI/ADR-RES ovarian): 276 nM
- TGI (NCI/ADR-RES ovarian): > 100000 nM
- GI50 (NCI-H460 lung): 402 nM
- TGI (NCI-H460 lung): > 100000 nM
- GI50 (SNB-19 CNS): 912 nM
- TGI (SNB-19 CNS): > 100000 nM
- GI50 (MALME-3M melanoma): 1750 nM
- TGI (MALME-3M melanoma): > 100000 nM
- GI50 (HCC-2998 colon): 537 nM
- TGI (HCC-2998 colon): > 100000 nM
- GI50 (IGROV1 ovarian): 502 nM
- TGI (IGROV1 ovarian): > 100000 nM
- GI50 (PC-3 prostate): 711 nM
- TGI (PC-3 prostate): > 100000 nM
- GI50 (SNB-75 CNS): 1070 nM
- TGI (SNB-75 CNS): > 100000 nM
- GI50 (RXF 393 renal): 1930 nM
- TGI (RXF 393 renal): > 82400 nM
- GI50 (786-0 renal): 399 nM
- TGI (786-0 renal): > 100000 nM
- GI50 (CCRF-CEM leukemia): 351 nM
- TGI (CCRF-CEM leukemia): > 100000 nM
